From the NIST ThermoML archive (doi:10.1016/j.jct.2016.08.010)
± gives the expanded uncertainty stated by the source.

Assays:
[1] = molar heat capacity at constant pressure; details: 100 kPa, Small sample (50 mg) DSC
[2] = 100 kPa; for speed of sound: Frequency=3 MHz, Sing-around technique in a fixed-path interferometer; for mass density: Vibrating tube method
[3] = molar heat capacity at constant pressure; xn = mol fraction of the nth substance listed; details: 100 kPa, Liquid, Small sample (50 mg) DSC
[4] = xn = mol fraction of the nth substance listed; details: 100 kPa, Liquid; for speed of sound: Frequency=3 MHz, Sing-around technique in a fixed-path interferometer; for mass density: Vibrating tube method

CCCCn1cc[n+](C)c1C.F[B-](F)(F)F [1-butyl-2,3-dimethylimidazolium tetrafluoroborate]
Metastable liquid
Details | mass density, [2] [kg/m3] | molar heat capacity at constant pressure, [1] [J/K/mol] | speed of sound, [2] [m/s]
293.15 K | 1193.5 ± 2 | 413.03 ± 8.8 | 1659.7 ± 1.5
298.15 K | 1191.8 ± 2 | 416.01 ± 8.9 | 1645.7 ± 1.5
303.15 K | 1189.7 ± 2 | 418.84 ± 8.9 | 1632.5 ± 1.5
308.15 K | 1187.9 ± 2 | 421.7 ± 9 | 1619.8 ± 1.5

CCCCn1cc[n+](C)c1.F[B-](F)(F)F [1-butyl-3-methylimidazolium tetrafluoroborate]
Liquid
Details | mass density, [2] [kg/m3] | molar heat capacity at constant pressure, [1] [J/K/mol] | speed of sound, [2] [m/s]
293.15 K | 1203.1 ± 2.1 | 362.35 ± 7.7 | 1578.1 ± 1.7
298.15 K | 1198.9 ± 2.1 | 365.12 ± 7.8 | 1565.5 ± 1.7
303.15 K | 1195.3 ± 2.1 | 367.48 ± 7.8 | 1554.1 ± 1.7
308.15 K | 1191.7 ± 2.1 | 369.88 ± 7.9 | 1542.3 ± 1.7

CCCCn1cc[n+](C)c1.F[B-](F)(F)F [1-butyl-3-methylimidazolium tetrafluoroborate] + CCCCn1cc[n+](C)c1C.F[B-](F)(F)F
x2 = 0
Details | mass density, [4] [kg/m3] | molar heat capacity at constant pressure, [3] [J/K/mol] | speed of sound, [4] [m/s]
293.15 K | 1203.1 ± 2.1 | 362.35 ± 7.7 | 1578.1 ± 1.7
298.15 K | 1198.9 ± 2.1 | 365.12 ± 7.8 | 1565.5 ± 1.7
303.15 K | 1195.3 ± 2.1 | 367.48 ± 7.8 | 1554.1 ± 1.7
308.15 K | 1191.7 ± 2.1 | 369.88 ± 7.9 | 1542.3 ± 1.7

CCCCn1cc[n+](C)c1.F[B-](F)(F)F [1-butyl-3-methylimidazolium tetrafluoroborate] + CCn1cc[n+](C)c1.F[B-](F)(F)F
x1 = 1
Details | mass density, [4] [kg/m3] | molar heat capacity at constant pressure, [3] [J/K/mol] | speed of sound, [4] [m/s]
293.15 K | 1203.1 ± 2.1 | 362.35 ± 7.7 | 1578.1 ± 1.7
298.15 K | 1198.9 ± 2.1 | 365.12 ± 7.8 | 1565.5 ± 1.7
303.15 K | 1195.3 ± 2.1 | 367.48 ± 7.8 | 1554.1 ± 1.7
308.15 K | 1191.7 ± 2.1 | 369.88 ± 7.9 | 1542.3 ± 1.7

CCn1cc[n+](C)c1.F[B-](F)(F)F [1-ethyl-3-methylimidazolium tetrafluoroborate]
Liquid
Details | mass density, [2] [kg/m3] | molar heat capacity at constant pressure, [1] [J/K/mol] | speed of sound, [2] [m/s]
293.15 K | 1283.9 ± 2 | 303.2 ± 6.5 | 1631.1 ± 1.6
298.15 K | 1279.9 ± 2 | 304.53 ± 6.5 | 1619.2 ± 1.6
303.15 K | 1276.3 ± 2 | 306.29 ± 6.5 | 1607.4 ± 1.6
308.15 K | 1272.1 ± 2 | 308.03 ± 6.6 | 1596.2 ± 1.6

CCn1cc[n+](C)c1.F[B-](F)(F)F [1-ethyl-3-methylimidazolium tetrafluoroborate] + CCCCn1cc[n+](C)c1C.F[B-](F)(F)F
x2 = 0
Details | mass density, [4] [kg/m3] | molar heat capacity at constant pressure, [3] [J/K/mol] | speed of sound, [4] [m/s]
293.15 K | 1283.9 ± 2 | 303.2 ± 6.5 | 1631.1 ± 1.6
298.15 K | 1279.9 ± 2 | 304.53 ± 6.5 | 1619.2 ± 1.6
303.15 K | 1276.3 ± 2 | 306.29 ± 6.5 | 1607.4 ± 1.6
308.15 K | 1272.1 ± 2 | 308.03 ± 6.6 | 1596.2 ± 1.6
